Data on 94 molecules can be found in PubChem BioAssay AID1508612.

This data set in a line: passive permeability, PAMPA, ADME assay (AID 1508612). The note with it: pH 7.4, 30.0 min, 50.0 µM. (In general: The PAMPA barrier holds no transporters, so it reflects passive diffusion.)

SMILES strings stand for the structures.

In general, Papp refers to the rate of passage across a membrane or cell layer, normalised by area and donor concentration. Low values mean slow passage, high ones fast passage. The molecule `COc1cc(Cl)c(C)cc1NS(=O)(=O)c1c(C)nc2sccn2c1=O` had a Papp of 787 ×10⁻⁶ cm/s.
In the case of `Cc1cnc(CNc2nc(-c3cccc(NS(C)(=O)=O)c3)nc3ccccc23)cn1`, the apparent permeability coefficient (Papp) was above 1000 ×10⁻⁶ cm/s.
The molecule `COc1cccc(O)c1CNc1ccc(S(=O)(=O)Nc2nccs2)cc1` had a Papp of 5.16 ×10⁻⁶ cm/s.
Turning to `O=C(NCc1ccccc1)c1nc(S(=O)(=O)Cc2ccc(F)cc2)ncc1Cl`, the apparent permeability coefficient (Papp) was determined as 350 ×10⁻⁶ cm/s.
For `CC(=O)NC(c1cccs1)c1cc(Br)c2cccnc2c1O` (centres undefined), the apparent permeability (Papp) amounted to 73 ×10⁻⁶ cm/s.
The molecule `COc1cnccc1-c1nc(Nc2ccc(F)c(F)c2)c2ccccc2n1` had a Papp of 3.6 ×10⁻⁶ cm/s.
Then `O=C(c1cccs1)c1nonc1C(=O)c1cccs1`, with 806 ×10⁻⁶ cm/s; and `Cc1ccc(S(=O)(=O)Nc2ccncc2C(=O)Nc2nc(-c3ccccc3)cs2)cc1`, with below 1 ×10⁻⁶ cm/s; and `CCc1ccc(NC(=O)CSC2=Nc3ccccc3C3=NC(CC(=O)NCc4ccc5c(c4)OCO5)C(=O)N23)cc1` (centres undefined), with below 1 ×10⁻⁶ cm/s.
Molecule `Cc1ccc(S(=O)(=O)Nc2cnccc2C(=O)Nc2nc(-c3ccc(F)cc3)cs2)cc1` came in with an apparent permeability (Papp) of 423 ×10⁻⁶ cm/s.
The molecule `CC(=O)Nc1ncc(S(=O)(=O)Nc2cnccc2C(=O)Nc2nc(-c3ccccc3)cs2)s1` yielded a Papp of 21.4 ×10⁻⁶ cm/s.
`O=[N+]([O-])c1ccc(/C=N/n2c(CO)nc3ccccc32)s1`: the Papp was 269 ×10⁻⁶ cm/s.
In turn, `O=C(Nc1ccccc1)C1CCN(c2nc(-c3ccc(Br)cc3)cs2)CC1` displayed an apparent permeability coefficient (Papp) of 48.6 ×10⁻⁶ cm/s.
As for `Cc1c(-c2cccc(NC(=O)c3ccc(F)c(F)c3)c2)nc2ncccn12`, the figure is 908 ×10⁻⁶ cm/s; as for `NC(=O)C1CCN(c2nc(-c3ccccc3Cl)cs2)CC1`, 517 ×10⁻⁶ cm/s.
Molecule `CC1(COc2ccc3c(c2)ncn3-c2ccc3cccc(N4CCC(N)CC4)c3n2)COC1` yielded an apparent permeability coefficient (Papp) of 25.2 ×10⁻⁶ cm/s.
As to `COc1cccc(NC(=O)c2cccc3c(=O)c4c([nH]c23)CCCC4)c1`, the apparent permeability (Papp) is above 1000 ×10⁻⁶ cm/s.
As for `CN1C(=O)c2ccccc2[S@](=O)c2ccc(C(=O)NCCc3cccs3)cc21`, the Papp amounted to 626 ×10⁻⁶ cm/s.
In turn, `CCOc1ccc(CCNC(=O)c2cc3sccc3n2C)cc1OCC` gave an apparent permeability coefficient (Papp) above 1000 ×10⁻⁶ cm/s.
Take `COc1cccc(CNc2ccc(S(=O)(=O)Nc3ccc(N4CCNCC4)cc3)cc2)c1O`: the Papp is above 1000 ×10⁻⁶ cm/s.
Turning to `C[C@@H]1CN(CC(=O)N2CC(C)(C)c3ncc(Cc4ccc(F)cc4)cc32)[C@@H](CN2CCOC[C@H]2C)CN1`, the apparent permeability coefficient (Papp) is above 1000 ×10⁻⁶ cm/s.
Turning to `CN(Cc1cnc2nc(N)nc(N)c2n1)c1ccc(C(=O)N[C@@H](CCC(=O)O)C(=O)O)cc1`, the Papp was found to be 5.39 ×10⁻⁶ cm/s.
`O=C(O)CCNc1cc(N2CCc3ccccc3CC2)nc(-c2cccnc2)n1`: the Papp came out at 56.4 ×10⁻⁶ cm/s.
In turn, `Cc1noc(C)c1-c1ccc2ncnc(NCc3cccc(Cl)c3)c2c1` displayed a Papp of 970 ×10⁻⁶ cm/s.
For the molecule `COc1cc(-c2cc3c(nc2-c2ccccc2)nc(C(=O)NC2CCN(C)CC2)n3C)ccn1`, the apparent permeability coefficient (Papp) was above 1000 ×10⁻⁶ cm/s.
`O=C(O)c1cccc(-n2cccc2/C=C2/NC(=O)N(c3cccc(Cl)c3)C2=O)c1` had a Papp of 3.96 ×10⁻⁶ cm/s.
On to `Cc1cc(-c2cc3c(nc2-c2ccccc2)nc(C(=O)NCCN(C)C)n3C)ccn1`, for which the Papp amounted to 320 ×10⁻⁶ cm/s.
Molecule `Cc1cnc(-c2ccccc2C(C)C)nc1NCC1CCN(c2cccnc2)CC1` displayed an apparent permeability coefficient (Papp) above 1000 ×10⁻⁶ cm/s.
`Cc1ccccc1-c1nc(CN2CCC(C(=O)NCCCN3CCOCC3)CC2)c(C)o1` had an apparent permeability coefficient (Papp) of 432 ×10⁻⁶ cm/s.
Then `Cc1ccccc1C(=O)N1CCC(C(=O)N2CCC(N3Cc4ccccc4C3=O)CC2)CC1`, with 50.8 ×10⁻⁶ cm/s; and `NC(=O)c1ccc(-c2nc3c([nH]2)CN(C(=O)CN2CCOCC2)CC3)cc1`, with 2.6 ×10⁻⁶ cm/s; and `Cc1ccc(S(=O)(=O)Nc2ccccc2C(=O)Nc2nc(-c3ccccc3)c(C)s2)cc1`, with 30.1 ×10⁻⁶ cm/s.
Then `Oc1ccc(CN2CC(CNc3ccccc3)C3(C2)CN(c2ccccc2)C3)cc1` (centres undefined), with above 1000 ×10⁻⁶ cm/s; and `Nc1nc2c(s1)C(c1ccc(F)c(F)c1)CC(=O)N2` (centres undefined), with 265 ×10⁻⁶ cm/s.
Molecule `CC1CC(C)(C)N(C(=O)CN2C(=O)c3ccccc3C2=O)c2ccccc21` (centres undefined) registered an apparent permeability (Papp) above 1000 ×10⁻⁶ cm/s.
Consider `Cc1cccc2c(C(=O)O)cc(-c3cccs3)nc12`, for which the apparent permeability (Papp) is 18.8 ×10⁻⁶ cm/s.
In the case of `C=Cc1ccc(Cn2c(C(=O)O)c(CNC3CCCCC3)c3ccc(OC)cc32)cc1`, the Papp turned out to be 771 ×10⁻⁶ cm/s.
Then `COc1ccc(Nc2nc(-c3cccc(OC)c3)no2)cc1`, with 34.5 ×10⁻⁶ cm/s; and `COc1ccc(Nc2cnc3ccc(-c4ccc(OC)c(OC)c4)nn23)cc1`, with 396 ×10⁻⁶ cm/s.
As for `O=C(Nc1ccc2oc(-c3ccccc3F)nc2c1)c1ccc([N+](=O)[O-])o1`, the figure is 38.4 ×10⁻⁶ cm/s; as for `Cc1ccc(N(C)S(=O)(=O)c2ccc(-c3cnc(C4CC4)o3)cc2)cc1`, above 1000 ×10⁻⁶ cm/s.
Take `Cc1ccc(S(=O)(=O)Nc2cnccc2C(=O)Nc2nc(-c3cccc(F)c3)cs2)cc1`: the apparent permeability (Papp) worked out at 153 ×10⁻⁶ cm/s.
Regarding `Cc1[nH]c2ccccc2c1CN1CCN(c2ccccn2)CC1`, the apparent permeability coefficient (Papp) was above 1000 ×10⁻⁶ cm/s.
As to `CCOc1ccc(CCNC(=O)c2cc3ccccc3n2Cc2cc(C)cc(C)n2)cc1OCC`, the Papp was above 1000 ×10⁻⁶ cm/s.
`COc1cc(/C=C(\C#N)c2nc3ccccc3[nH]2)ccc1OCc1ccc(F)cc1` came in with a Papp of 641 ×10⁻⁶ cm/s.
As for `OCc1ccc(-c2ccc(-c3ccc(CO)s3)o2)s1`, the figure is 956 ×10⁻⁶ cm/s; as for `CC1=C(C(=O)Nc2nncs2)C(c2ccccc2Br)N=C(Nc2nc3ccccc3o2)N1` (centres undefined), 128 ×10⁻⁶ cm/s; as for `CC/C=C\C/C=C\C/C=C\C/C=C\C/C=C\C/C=C\CCC(=O)NCCO`, 298 ×10⁻⁶ cm/s.
As for `COc1ccc(N(C)C(=O)c2cc3c(s2)-c2ccccc2OC3)cc1`, the figure is 822 ×10⁻⁶ cm/s; as for `O=S(=O)(Nc1nccs1)c1ccc(NCc2cccc(Br)c2O)cc1`, 72.7 ×10⁻⁶ cm/s.
For the molecule `COc1ccc(CNC(=O)Cn2nc3c(cc2=O)CCCC3)cc1`, the apparent permeability (Papp) was found to be 40.6 ×10⁻⁶ cm/s.
On to `COc1ccc(-n2c(C)c(C(C)=O)c3ccccc32)cc1`, for which the Papp is above 1000 ×10⁻⁶ cm/s.
Regarding `NC(=O)c1cccc(-c2cc(Nc3ccc(OC(F)(F)F)cc3)ncn2)c1`, the Papp was found to be 579 ×10⁻⁶ cm/s.
`c1ccc2c(N3CCOCC3)nc(-c3ccncc3)nc2c1` gave a Papp above 1000 ×10⁻⁶ cm/s.
Molecule `Cc1cccc(-n2cnc3cc(C(=O)N4CCCC(C)C4)ccc32)c1` (centres undefined) returned a Papp above 1000 ×10⁻⁶ cm/s.
Then `NC(=O)C1CCN(c2nc(-c3cccc(Br)c3)cs2)CC1`, with 788 ×10⁻⁶ cm/s; and `O=C(c1nc(-c2cccnc2)c2ccccn12)N1CCOCC1`, with 206 ×10⁻⁶ cm/s.
As for `O=C(O)CCC(=O)Nc1nc(-c2ccccc2)cs1`, the figure is below 1 ×10⁻⁶ cm/s.
As to `O=C(Nc1ncc(Cc2ccc(C(F)(F)F)cc2)s1)c1ccc(-c2cccnc2)o1`, the apparent permeability coefficient (Papp) was 984 ×10⁻⁶ cm/s.
`CC(C)(C)c1ccc(S(=O)(=O)c2cnc(SCC(=O)Nc3ccc(F)c(Cl)c3)[nH]c2=O)cc1` yielded an apparent permeability coefficient (Papp) of 6.49 ×10⁻⁶ cm/s.
Then `CC(Cc1ccc(O)cc1)NCC(O)c1cc(O)cc(O)c1` (centres undefined), with 1.9 ×10⁻⁶ cm/s; and `Cc1noc(C)c1C(=O)N1CCC2(CCCN(Cc3ccccc3)C2)CC1`, with 449 ×10⁻⁶ cm/s; and `Cc1noc(C)c1-c1ccc2ncnc(NC(C)c3ccccc3)c2c1` (centres undefined), with above 1000 ×10⁻⁶ cm/s.
On to `COc1cccc(CNc2ccc(S(=O)(=O)Nc3nccs3)cc2)c1OC`, for which the apparent permeability (Papp) came out at 313 ×10⁻⁶ cm/s.
On to `COc1ccc(-c2cnc(N3CCC(C(N)=O)CC3)s2)cc1OC`, for which the apparent permeability (Papp) was found to be 336 ×10⁻⁶ cm/s.
`Cc1ccc(S(=O)(=O)Nc2cccc(C(=O)Nc3nc(-c4ccccc4)cs3)c2Cl)cc1` showed a Papp below 1 ×10⁻⁶ cm/s.
Molecule `FC(F)(F)c1ccccc1-c1nc(NCc2cccs2)c2ccccc2n1` yielded a Papp above 1000 ×10⁻⁶ cm/s.
For the molecule `COC(=O)C1=C(C)NC(C)=C(C(=O)O[C@@H]2CCCN(Cc3ccccc3)C2)[C@@H]1c1cccc([N+](=O)[O-])c1`, the Papp worked out at 950 ×10⁻⁶ cm/s.
Consider `Cc1ccc(-c2cc(C(=O)Nc3ccc(S(=O)(=O)NCc4nccs4)cc3)c3ccccc3n2)cc1C`, for which the apparent permeability (Papp) was 6 ×10⁻⁶ cm/s.
For `CCOc1ccccc1N1CC(c2nc3ccccc3n2CCOc2ccc(C(C)(C)C)cc2)CC1=O` (centres undefined), the Papp was found to be 793 ×10⁻⁶ cm/s.
In the case of `COc1cccc(C(=O)Nc2nnc(S(=O)(=O)N3CCOCC3)s2)c1`, the Papp amounted to 19.2 ×10⁻⁶ cm/s.
The molecule `CCc1cc(Cl)c(OC)c(C(=O)NC[C@@H]2CCCN2CC)c1O` had a Papp above 1000 ×10⁻⁶ cm/s.
`Cc1ccccc1-c1nc(NCc2ccc(-c3cccnc3)cc2)c2ccccc2n1` came in with a Papp of 547 ×10⁻⁶ cm/s.
`O=C(Nc1ccc([S+](=O)([O-])Nc2nccs2)cc1)c1ccn[nH]1` showed a Papp below 1 ×10⁻⁶ cm/s.
As to `Cc1ccc(CN2C(=O)C(O)(CC(=O)c3ccc(C)cc3)c3ccccc32)cc1` (centres undefined), the Papp is 802 ×10⁻⁶ cm/s.
Molecule `COc1ccc(OC)c(-n2c3c(cc(-c4nc(-c5ccc(Cl)cc5)cs4)c2=O)C(=O)CC(C)(C)C3)c1` came in with a Papp of 216 ×10⁻⁶ cm/s.
For the molecule `Cc1ccc(S(=O)(=O)Nc2cnccc2C(=O)Nc2cccc3ccccc23)cc1`, the apparent permeability coefficient (Papp) was 288 ×10⁻⁶ cm/s.
Turning to `CN(C)c1cccc(-c2cnc(Nc3cccnc3)c3c2CCO3)c1`, the Papp is above 1000 ×10⁻⁶ cm/s.
`COc1ccc(C(=O)CCN(C)C)cc1F` came in with a Papp of 410 ×10⁻⁶ cm/s.
`COc1ncccc1-c1cc2[nH]ccc2c(C(=O)NCc2c(C)cc(C)[nH]c2=O)n1` displayed a Papp of 472 ×10⁻⁶ cm/s.
`O=C1CCCC2=C1C(c1ccncc1Cl)N=C(Nc1nc3ccccc3o1)N2` (centres undefined) returned an apparent permeability (Papp) of 897 ×10⁻⁶ cm/s.
Then `O=C(Nc1ccc(Cl)cc1)Nc1ccc(Cl)c(Cl)c1`, with 240 ×10⁻⁶ cm/s; and `O=C(CCCN1CCC(O)(c2cccc(C(F)(F)F)c2)CC1)c1ccc(F)cc1`, with above 1000 ×10⁻⁶ cm/s; and `N#Cc1cccc(S(=O)(=O)Nc2cnccc2C(=O)Nc2nc(-c3ccccc3)cs2)c1`, with 189 ×10⁻⁶ cm/s.
Then `O=C1CCCC2=C1C(c1ccncc1Br)N=C(Nc1nc3ccccc3o1)N2` (centres undefined), with above 1000 ×10⁻⁶ cm/s; and `CS(=O)(=O)c1cccc(-c2csc(N3CCC(C(N)=O)CC3)n2)c1`, with 49.1 ×10⁻⁶ cm/s.
Turning to `O=S(=O)(c1ccc2ccccc2c1)N1CCN(c2nc(-c3cccs3)nc3ccccc23)CC1`, the Papp turned out to be 3.2 ×10⁻⁶ cm/s.
Consider `Cc1ccc(S(=O)(=O)Nc2cnccc2C(=O)NCCc2ccccc2)cc1`, for which the Papp worked out at 20.3 ×10⁻⁶ cm/s.
`CCc1cccc(CC)c1-n1c(C=C(C)C)c(C(=O)N2CCNCC2)cc(-c2nc(-c3ccc(C(F)(F)F)cc3)cs2)c1=O`: the apparent permeability (Papp) was found to be 33.8 ×10⁻⁶ cm/s.
In turn, `CSc1cc2c(s1)c1cnn(Cc3cccc(N)c3)c(=O)c1n2C` came in with a Papp above 1000 ×10⁻⁶ cm/s.
On to `CC(=O)c1cccc(-c2csc3ncnc(Sc4nnnn4C)c23)c1`, for which the Papp turned out to be 239 ×10⁻⁶ cm/s.
For `Cc1cccc(C)c1C(=O)Nc1cccc([S+](=O)([O-])N2CCCCCC2)c1`, the apparent permeability coefficient (Papp) is 827 ×10⁻⁶ cm/s.
With `O=C(CSc1ccccc1)Nc1nnc(COc2ccc(Cl)cc2)s1`, the Papp was 498 ×10⁻⁶ cm/s.
For `COc1ccnc(NC(=S)N2CCN(c3cc(C(F)(F)F)cc(C(F)(F)F)c3)CC2)c1`, the Papp worked out at 373 ×10⁻⁶ cm/s.
